Assay results: patent US11834698B2, “Process for determining enzyme activity in a cell by activity-based reporter gene technology (ABRGT)” (INDIAN INSTITUTE OF SCIENCE EDUCATION AND RESEARCH, priority 2018, dated 2023)
Where “and” joins values, the source holds several entries; their conditions need not be identical. Identical values can stand only once.

Key:
Jurkat cell lysate = test: In-gel fluorescence assay of off-target labelling in Jurkat cells; type: cell-based; conditions: Jurkat cell lysate 2 μg/μL, probe 1 μM
Description: FIG. 5 depicts cellular off-target labelling of the probe 1 shown in Jurkat cells 2.5 million Jurkat cells were incubated with 1 μM probe 1 in the (b) presence or (c) the absence of STS (1 μM) for 6 h. Cells are incubated (a) without and (d) with the probe 1 and STS. Cells comprising labelled enzymes were lysed and analyzed by 12% SDS-PAGE followed by scanning for rhodamine fluorescence (Ex: 561 nm, Em: 605 nm) with a flat-bed laser scanner.
To rule out that the obtained FRET signal in [FIG. 2b (i)] is not because of random physical interaction between GFPspark and rhodamine dye, MCF-7 cells were transfected with a plasmid encoding for enhanced green fluorescent protein (EGFP). EGFP transfected MCF-7 cells were treated with STS (1 μM) for 4 h, labelled with the probe 1. […] In-gel fluorescence assay was also performed to validate the multiple off-targets labelling of probe 1 which has also been shown in the previous reports. […] The calculated FRET efficiency for (n=15 cells) is 35±1%. […] Caspase-3 activation was also monitored using probe 2 as fABP which is different from probe 1 in terms of peptide recognition sequence; DEVD in exchange for VAD as DEVD peptide sequence is more specific for caspases as compared to VAD. Probe 2 yielded a similar pattern of fluorescence signal in GFPspark, FRET and Rh channel as that of probe 1 [FIG. 7(a)]. The calculated FRET efficiency was 35% [FIG. 7(b)]. […]

[1] = molecular target: T1, recombinant human caspase-3 His tagged enzyme (rcaspase-3) (Homo sapiens, UniProt P42574); test: In-gel fluorescence labelling of purified rcaspase-3 by fABP; type: binding
T1 construct: The purified rcaspase-3 was confirmed with the two peaks obtained at 12939 and 16598 Da; His tag; made in house
T1 sequence (P42574 29-175 limits assumed): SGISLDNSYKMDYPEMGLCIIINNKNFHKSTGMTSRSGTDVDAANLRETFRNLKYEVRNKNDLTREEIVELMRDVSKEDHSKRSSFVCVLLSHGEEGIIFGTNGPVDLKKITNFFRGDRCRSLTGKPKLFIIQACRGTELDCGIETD
T1 sequence (P42574 176-277 limits assumed): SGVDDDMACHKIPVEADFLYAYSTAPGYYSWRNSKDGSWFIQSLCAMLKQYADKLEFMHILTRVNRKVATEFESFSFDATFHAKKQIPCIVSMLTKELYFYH
Description: FIG. 4 depicts (a) labelling of purified rcaspase-3 (2 μM) by probe 1 at a concentration of 100, 500 and 2000 nM. (b) integrated band intensity values. (c) The specificity of probe 1 (1 μM) to label active enzyme (500 nM); (lane 1: active rcaspase-3 in the presence of probe 1, lane 2: thermally denatured rcaspase-3 in the presence of probe 1.
To establish AbRGT, the specific activation of caspase-3 GFPspark was monitored, in the apoptosis signalling pathway, using fABP, Rhodamine-VAD-fluoromethyl ketone (Rh-VAD-FMK) probe (probe 1) (Micale et al., JACS, 2004) [FIG. 2(a)] in MCF-7 cells. Here, rhodamine is the fluorescent tag, VAD is the peptide recognition sequence for caspases and FMK is the reactive warhead for targeting pan-caspases. Before monitoring the specific caspase-3 activation in the native cellular environment, the active-site labelling of probe 1 to the caspase-3 enzyme in in vitro conditions was first validated. The recombinant human caspase-3 His tagged enzyme (rcaspase-3) was expressed and purified using Ni-NTA column chromatography (Stennicke et al., Methods, 1999). […] The labelled enzyme samples were then separated on a 12% SDS-PAGE gel and were visualized using an in-gel fluorescence scanner. […]

caspase-3 = molecular target: T2, caspase-3 (Homo sapiens, UniProt P42574); conditions: previously shown; cited from earlier work
T2 sequence (P42574 29-175 limits assumed): T1 sequence (P42574 29-175 limits assumed)
T2 sequence (P42574 176-277 limits assumed): T1 sequence (P42574 176-277 limits assumed)

caspase-3 GFPspark = molecular target: T3, caspase-3 GFPspark (Homo sapiens, UniProt P42574); test: AbRGT FRET imaging / acceptor photobleaching, caspase-3 GFPspark in HEK-293 cells; type: cell-based; design: host or cells: HEK-293; conditions: HEK-293, STS 1 μM 10 h, probe 1 μM
T3 sequence (P42574 29-175 limits assumed): T1 sequence (P42574 29-175 limits assumed)
T3 sequence (P42574 176-277 limits assumed): T1 sequence (P42574 176-277 limits assumed)

In the case of “Rhodamine-VAD-fluoromethyl ketone [probe 1]”, the “off-target labelling, bands on SDS-PAGE gel upon rhodamine excitation” value (Jurkat cell lysate) is reported as “multiple bands”, the “fluorescence signal after thermal denaturation of rcaspase-3 before labelling” value ([1]; probe 1 μM, enzyme 500 nM) is reported as “completely abolished” and the “concentration at which probe effectively labelled rcaspase-3” value ([1]; rcaspase-3 2 μM, probe 100, 500, 2000 nM, SDS-PAGE in-gel fluorescence) is reported as at most 100 nM. For the same substance, the “affinity for caspase-3” value (caspase-3) was “moderate affinity”, the “selectivity for caspase-3” value (caspase-3) was “low selectivity” and the “calculated FRET efficiency” value (caspase-3 GFPspark) was 32.5±2% and 33±2%. For the same substance, the “rise in GFP intensity in the ROI” value (caspase-3 GFPspark) was 72 a.u.
